# Measured values published in patent publication US8969325B2, “TRPV1 antagonists” (AbbVie Inc., priority 2011, dated 2015).
# Columns and labels:
# human TRPV1 [1] = biological target: T1, human TRPV1 (Homo sapiens (Human), UniProt Q8NER1); test: Capsaicin Activation Assay (intracellular Ca2+, FLIPR); format: cell-based; details: recombinant HEK293 cells expressing hTRPV1, 50 nM capsaicin
# In short: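 Ca2+ fluorescence was recorded by FLIPR every 1 to 5 seconds in HEK293 cells, clonally selected for stable human TRPV1 expression and plated one day ahead. Test compounds came as serial dilutions of 10 mM DMSO stocks.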
# human TRPV1 [2] = biological target: T1, human TRPV1; test: Acid Activation Assay (pH 5.0, intracellular Ca2+, FLIPR); format: cell-based; details: percentage of the maximal pH 5.0-induced response remaining; recombinant HEK293 hTRPV1 cells; maximum concentration tested 37.5 μM
# In short: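 Readout: peak [Ca2+]i fluorescence over baseline on FLIPR, expressed as percentage remaining of the maximal pH 5.0-evoked signal. Stable hTRPV1-HEK293 cells with Calcium-4 dye received compound (12 half-log concentrations, maximum 37.5 μM) 3 min before acidic pH 5.0 buffer.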
# T1 sequence (Q8NER1 whole entry): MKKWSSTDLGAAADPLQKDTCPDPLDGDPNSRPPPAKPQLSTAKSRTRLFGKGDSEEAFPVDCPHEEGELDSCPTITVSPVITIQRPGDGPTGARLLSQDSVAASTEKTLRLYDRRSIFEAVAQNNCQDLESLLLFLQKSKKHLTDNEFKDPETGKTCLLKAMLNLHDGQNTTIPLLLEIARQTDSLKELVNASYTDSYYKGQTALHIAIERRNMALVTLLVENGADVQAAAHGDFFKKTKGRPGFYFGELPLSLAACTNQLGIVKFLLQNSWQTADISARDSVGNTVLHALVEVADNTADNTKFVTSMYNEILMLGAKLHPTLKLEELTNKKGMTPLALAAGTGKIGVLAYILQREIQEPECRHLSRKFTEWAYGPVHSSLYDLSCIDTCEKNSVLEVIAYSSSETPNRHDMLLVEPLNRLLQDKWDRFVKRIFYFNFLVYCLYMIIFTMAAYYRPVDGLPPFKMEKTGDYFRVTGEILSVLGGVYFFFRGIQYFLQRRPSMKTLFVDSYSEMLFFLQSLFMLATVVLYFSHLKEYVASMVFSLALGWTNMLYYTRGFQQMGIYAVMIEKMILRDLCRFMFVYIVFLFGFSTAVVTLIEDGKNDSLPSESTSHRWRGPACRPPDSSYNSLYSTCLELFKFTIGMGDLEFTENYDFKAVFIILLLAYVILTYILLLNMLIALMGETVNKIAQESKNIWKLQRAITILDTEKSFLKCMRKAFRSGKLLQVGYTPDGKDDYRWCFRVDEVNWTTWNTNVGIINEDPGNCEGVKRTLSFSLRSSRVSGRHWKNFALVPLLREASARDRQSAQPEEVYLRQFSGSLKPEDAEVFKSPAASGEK
IC50 (human TRPV1 [1]),human TRPV1 H^+ (max % remain) (human TRPV1 [2]),SMILES
94 nM,98%,"CC1(C)C[C@@H](NC(=O)Nc2ccc3c(c2)NC(=O)CO3)c2ccc(C(F)(F)F)cc2O1 [Example 106, 1-[(4R)-2,2-dimethyl-7-(trifluoromethyl)-3,4-dihydro-2H-chromen-4-yl]-3-(3-oxo-3,4-dihydro-2H-1,4-benzoxazin-6-yl)urea]"
400 nM,113%,"CCCC1(CCC)C[C@@H](NC(=O)Nc2ccc3c(c2)NC(=O)CO3)c2cc(F)ccc2O1 [Example 107, 1-[(4R)-6-fluoro-2,2-dipropyl-3,4-dihydro-2H-chromen-4-yl]-3-(3-oxo-3,4-dihydro-2H-1,4-benzoxazin-6-yl)urea]"
240 nM,104%,"O=C1COc2ccc(NC(=O)N[C@@H]3CC4(CCC4)Oc4ccc(F)cc43)cc2N1 [Example 108, 1-[(4R)-6-fluoro-3,4-dihydrospiro[chromene-2,1′-cyclobutan]-4-yl]-3-(3-oxo-3,4-dihydro-2H-1,4-benzoxazin-6-yl)urea]"
130 nM,92%,"CCC1(CC)C[C@@H](NC(=O)Nc2ccc3c(c2)NC(=O)CO3)c2cc(F)ccc2O1 [Example 109, 1-[(4R)-2,2-diethyl-6-fluoro-3,4-dihydro-2H-chromen-4-yl]-3-(3-oxo-3,4-dihydro-2H-1,4-benzoxazin-6-yl)urea]"
150 nM,111%,"CCCC1(CCC)C[C@@H](NC(=O)Nc2ccc3c(c2)NC(=O)CO3)c2cccc(F)c2O1 [Example 110, 1-[(4R)-8-fluoro-2,2-dipropyl-3,4-dihydro-2H-chromen-4-yl]-3-(3-oxo-3,4-dihydro-2H-1,4-benzoxazin-6-yl)urea]"
190 nM,71%,"CCC1(CC)C[C@@H](NC(=O)Nc2ccc3c(c2)NC(=O)CO3)c2ccc(OC(F)(F)F)cc2O1 [Example 111, 1-[(4R)-2,2-diethyl-7-(trifluoromethoxy)-3,4-dihydro-2H-chromen-4-yl]-3-(3-oxo-3,4-dihydro-2H-1,4-benzoxazin-6-yl)urea]"
440 nM,101%,"CC1(C)C[C@@H](NC(=O)Nc2ccc3c(c2)NC(=O)CO3)c2ccccc2O1 [Example 112, 1-[(4R)-2,2-dimethyl-3,4-dihydro-2H-chromen-4-yl]-3-(3-oxo-3,4-dihydro-2H-1,4-benzoxazin-6-yl)urea]"
770 nM,102%,"CC1(C)C[C@@H](NC(=O)Nc2ccc3c(c2)NC(=O)CO3)c2cc(F)ccc2O1 [Example 113, 1-[(4R)-6-fluoro-2,2-dimethyl-3,4-dihydro-2H-chromen-4-yl]-3-(3-oxo-3,4-dihydro-2H-1,4-benzoxazin-6-yl)urea]"
56 nM,99%,"CC1(C)C[C@@H](NC(=O)Nc2ccc3c(c2)NC(=O)CO3)c2ccc(Cl)cc2O1 [Example 114, 1-[(4R)-7-chloro-2,2-dimethyl-3,4-dihydro-2H-chromen-4-yl]-3-(3-oxo-3,4-dihydro-2H-1,4-benzoxazin-6-yl)urea]"
> 38000 nM,91%,"O=C1COc2ccc(NC(=O)N[C@@H]3CCOc4cc(OC(F)(F)F)ccc43)cc2N1 [Example 115, 1-(3-oxo-3,4-dihydro-2H-1,4-benzoxazin-6-yl)-3-[(4R)-7-(trifluoromethoxy)-3,4-dihydro-2H-chromen-4-yl]urea]"
2000 nM,99%,"O=C1COc2ccc(NC(=O)N[C@@H]3CC(CF)(CF)Oc4c(F)cccc43)cc2N1 [Example 116, 1-[(4R)-8-fluoro-2,2-bis(fluoromethyl)-3,4-dihydro-2H-chromen-4-yl]-3-(3-oxo-3,4-dihydro-2H-1,4-benzoxazin-6-yl)urea]"
120 nM,99%,"CC1(C)C[C@@H](NC(=O)Nc2ccc3c(c2)NC(=O)CO3)c2ccc(F)c(F)c2O1 [Example 117, 1-[(4R)-7,8-difluoro-2,2-dimethyl-3,4-dihydro-2H-chromen-4-yl]-3-(3-oxo-3,4-dihydro-2H-1,4-benzoxazin-6-yl)urea]"
> 38000 nM,101%,"O=C1COc2ccc(NC(=O)N[C@@H]3CCOc4ccc(F)cc43)cc2N1 [Example 118, 1-[(4R)-6-fluoro-3,4-dihydro-2H-chromen-4-yl]-3-(3-oxo-3,4-dihydro-2H-1,4-benzoxazin-6-yl)urea]"
170 nM,110%,"O=C1COc2ccc(NC(=O)N[C@@H]3CCc4cc(Cl)ccc43)cc2N1 [Example 119, 1-[(1R)-5-chloro-2,3-dihydro-1H-inden-1-yl]-3-(3-oxo-3,4-dihydro-2H-1,4-benzoxazin-6-yl)urea]"
200 nM,103%,"O=C1COc2ccc(NC(=O)N[C@@H]3CCOc4c3cccc4C(F)(F)F)cc2N1 [Example 120, 1-(3-oxo-3,4-dihydro-2H-1,4-benzoxazin-6-yl)-3-[(4R)-8-(trifluoromethyl)-3,4-dihydro-2H-chromen-4-yl]urea]"
> 38000 nM,107%,"O=C1COc2ccc(NC(=O)N[C@@H]3CCOc4cc(C(F)(F)F)ccc43)cc2N1 [Example 121, 1-(3-oxo-3,4-dihydro-2H-1,4-benzoxazin-6-yl)-3-[(4R)-7-(trifluoromethyl)-3,4-dihydro-2H-chromen-4-yl]urea]"
> 38000 nM,104%,"O=C1COc2ccc(NC(=O)N[C@H]3CC4(CCC4)Oc4ccc(F)cc43)cc2N1 [Example 122, 1-[(4S)-6-fluoro-3,4-dihydrospiro[chromene-2,1′-cyclobutan]-4-yl]-3-(3-oxo-3,4-dihydro-2H-1,4-benzoxazin-6-yl)urea]"
> 38000 nM,94%,"CC1(C)C[C@H](NC(=O)Nc2ccc3c(c2)NC(=O)CO3)c2cc(F)ccc2O1 [Example 123, 1-[(4S)-6-fluoro-2,2-dimethyl-3,4-dihydro-2H-chromen-4-yl]-3-(3-oxo-3,4-dihydro-2H-1,4-benzoxazin-6-yl)urea]"
1600 nM,97%,"O=C1COc2ccc(NC(=O)N[C@@H]3CC4(CCCC4)Oc4ccccc43)cc2N1 [Example 124, 1-[(4R)-3,4-dihydrospiro[chromene-2,1′-cyclopentan]-4-yl]-3-(3-oxo-3,4-dihydro-2H-1,4-benzoxazin-6-yl)urea]"
330 nM,96%,"C[C@@]1(C(F)(F)F)C[C@@H](NC(=O)Nc2ccc3c(c2)NC(=O)CO3)c2ccccc2O1 [Example 125, 1-[(2S,4R)-2-methyl-2-(trifluoromethyl)-3,4-dihydro-2H-chromen-4-yl]-3-(3-oxo-3,4-dihydro-2H-1,4-benzoxazin-6-yl)urea]"
58 nM,87%,"C[C@]1(C(F)(F)F)C[C@@H](NC(=O)Nc2ccc3c(c2)NC(=O)CO3)c2ccccc2O1 [Example 126, 1-[(2R,4R)-2-methyl-2-(trifluoromethyl)-3,4-dihydro-2H-chromen-4-yl]-3-(3-oxo-3,4-dihydro-2H-1,4-benzoxazin-6-yl)urea]"
67 nM,100%,"C[C@@]1(CF)C[C@@H](NC(=O)Nc2ccc3c(c2)NC(=O)CO3)c2ccc(C(F)(F)F)cc2O1 [Example 127, 1-[(2S,4R)-2-(fluoromethyl)-2-methyl-7-(trifluoromethyl)-3,4-dihydro-2H-chromen-4-yl]-3-(3-oxo-3,4-dihydro-2H-1,4-benzoxazin-6-yl)urea]"
34 nM,99%,"C[C@]1(CF)C[C@@H](NC(=O)Nc2ccc3c(c2)NC(=O)CO3)c2ccc(C(F)(F)F)cc2O1 [Example 128, 1-[(2R,4R)-2-(fluoromethyl)-2-methyl-7-(trifluoromethyl)-3,4-dihydro-2H-chromen-4-yl]-3-(3-oxo-3,4-dihydro-2H-1,4-benzoxazin-6-yl)urea]"
120 nM,97%,"C[C@@]1(CF)C[C@@H](NC(=O)Nc2ccc3c(c2)NC(=O)CO3)c2ccc(Cl)cc2O1 [Example 129, 1-[(2S,4R)-7-chloro-2-(fluoromethyl)-2-methyl-3,4-dihydro-2H-chromen-4-yl]-3-(3-oxo-3,4-dihydro-2H-1,4-benzoxazin-6-yl)urea]"
1000 nM,98%,"C[C@@]1(C(F)F)C[C@@H](NC(=O)Nc2ccc3c(c2)NC(=O)CO3)c2ccccc2O1 [Example 130, 1-[(2S,4R)-2-(difluoromethyl)-2-methyl-3,4-dihydro-2H-chromen-4-yl]-3-(3-oxo-3,4-dihydro-2H-1,4-benzoxazin-6-yl)urea]"
360 nM,89%,"C[C@]1(C(F)F)C[C@@H](NC(=O)Nc2ccc3c(c2)NC(=O)CO3)c2ccccc2O1 [Example 131, 1-[(2R,4R)-2-(difluoromethyl)-2-methyl-3,4-dihydro-2H-chromen-4-yl]-3-(3-oxo-3,4-dihydro-2H-1,4-benzoxazin-6-yl)urea]"
31000 nM,98%,"O=C1COc2ccc(NC(=O)NCC3CCc4ccc(C(F)(F)F)cc4O3)cc2N1 (centres unmarked) [Example 132, 1-(3-oxo-3,4-dihydro-2H-1,4-benzoxazin-6-yl)-3-{[7-(trifluoromethyl)-3,4-dihydro-2H-chromen-2-yl]methyl}urea]"
2500 nM,100%,"O=C1COc2ccc(NC(=O)NCC3COc4ccc(F)cc4C3)cc2N1 (centres unmarked) [Example 133, 1-[(6-fluoro-3,4-dihydro-2H-chromen-3-yl)methyl]-3-(3-oxo-3,4-dihydro-2H-1,4-benzoxazin-6-yl)urea]"
